Key:
[1] = system: Mesenchymal valve cells; test: tritiated thymidine incorporation, PDGF-stimulated cell proliferation; assay type: cell-based
Method: Mesenchymal valve cells were isolated from the cardiac aortic valves by collagenase digestion. Cells were cultured in medium 199 with 10% (v/v) heat-inactivated fetal bovine serum at 37 C in a humidified atmosphere of 5% CO2 in air. Cells were utilized between the 3rd and 7th passage. Mesenchymal cells were grown to confluence in 24-well plates and then growth-arrested by incubation in serum-free medium for 24 hours. The test materials were added to the wells and incubated for 18 hours. Test materials include PDGF at concentrations (10-40 ug/ml) PDGF Sigma in combination with a MEK inhibitor (PD0325901 Mek Inhibitor) (2.5-10 ug/ml). The wells were pulsed for 4 hours with 1 μCi/well of tritiated thymidine. Newly synthesized DNA will be then identified by incorporation of radioactivity into acid-precipitated cellular material. All samples were assayed in quadruplicate wells. The positive control wells were given PDGF (10 ug/ml) Sigma (St. Louis, Mo.), the negative control wells received serum-free medium.

[2] = system: p42/44; test: p42/44 protein expression by western blot; assay type: cell-based; conditions: FIG. 16 Panel C
[3] = rabbit model of experimental hypercholesterolemia, serum levels; assay type: in vivo; conditions: cholesterol-fed rabbits, atorvastatin 3.0 mg/kg daily orally
Text: An experimental animal was developed to test for the dosing of the atorvastatin to reduce the inflammation and also the pannus formation on the valve leaflet. The experimental procedure is as follows, Male New Zealand white rabbits weighing 2.5-3.0 kg were assigned to a control (N=10) or 0.5% cholesterol-fed group (N=10) or to a cholesterol-fed and atorvastatin group (N=10). All animals were fed ad libitum for 12 weeks. Control rabbits were fed a standard diet. Cholesterol-fed animals received a diet supplemented with 0.5% (w/w) cholesterol (Purina Mills, Woodmont, Ind.), and the cholesterol-fed and atorvastatin group were given atorvastatin 3.0 mg/kg daily orally for the statin treatment arm^1. Prior to the initiation of the diet the rabbits underwent surgical implantation of bovine pericardial bioprosthetic valve tissue (Perimount, Edwards, Irvine Calif.) using intramuscular ketamine/xylazine (40/5 mg/kg). Following this 12-week period, the rabbits were anesthetized using intramuscular ketamine/xylazine (40/5 mg/kg) and then underwent euthanasia with intracardiac administration of 1 ml of Beuthanasia. Immediately after removal from the subcutaneous implantation site the bioprosthetic valves were fixed in 4% buffered formalin for 24 hours and then embedded in paraffin. Paraffin embedded sections (6 μm) were cut and stained with Masson Trichrome stain for histopathologic exam. […]

[4] = system: bovine pericardial bioprosthetic valve tissue; test: rabbit model with subcutaneously implanted bioprosthetic valve tissue: RNA expression and pannus formation; assay type: in vivo
[5] = system: neointima hyperplasia; conditions: stent coating, at four weeks; cited from earlier work
[6] = from biodegradable polylactic acid, follow-up of four years; cited from earlier work
[7] = atorvastatin at 80 mg per day equivalent to human dosing, FIG. 15

**Q.** Which results are given for PDGF?
**A.** mesenchymal cell proliferation ([1]; PDGF dose response 10-40 ug/ml, FIG. 16 Panel A): proliferating; p42/44 protein expression [2]: increase

**Q.** For O=C(NOC[C@H](O)CO)c1ccc(F)c(F)c1Nc1ccc(I)cc1F [PD0325901], which “dosing range with inhibition effect on cell proliferation” value ([1]; PDGF 10 ug/ml induced proliferation, tested range 2.5-10 ug/ml, 18 hours, FIG. 16 Panel B) is on record?
**A.** 5 to 10 µg/mL

**Q.** And the p42/44 protein expression [2]?
**A.** inhibition

**Q.** Which hsCRP serum levels ([3]; 12 weeks) does the source give for CC(C)c1c(C(=O)Nc2ccccc2)c(-c2ccccc2)c(-c2ccc(F)cc2)n1CC[C@@H](O)C[C@@H](O)CC(=O)O [Atorvastatin] here?
**A.** 7.8±8.7

**Q.** What about the serum cholesterol levels ([3]; 12 weeks (equivalent to 80 mg a day for humans)) of the same compound?
**A.** 824.0 ± 152.1 mg/dL

**Q.** What about the “stem cell RNA expression on the valves” value [4, 7] of the same compound?
**A.** reduction

**Q.** And the “stem cell mediated pannus formation” value [4, 7]?
**A.** reduction

**Q.** And the “therapeutic benefit at the lower dosing ranges” value ([4]; previous experiments, 20 mg a day and 40 mg a day)?
**A.** zero therapeutic benefit

**Q.** And the “ckit stem cell adhering to the valve” value ([4]; rabbit, in vivo)?
**A.** reduces

**Q.** With CC(=O)O[C@H]1C(=O)[C@@]2(C)[C@H]([C@H](OC(=O)c3ccccc3)[C@]3(O)C[C@H](OC(=O)[C@H](O)[C@@H](NC(=O)c4ccccc4)c4ccccc4)C(C)=C1C3(C)C)[C@]1(OC(C)=O)CO[C@@H]1C[C@@H]2O [Paclitaxel] as the compound, how does the neointima hyperplasia [5] read?
**A.** inhibits

**Q.** Which “major adverse clinical events versus sirolimus eluting stents” value [6] does the source give for CCOCCO[C@@H]1CC[C@@H](C[C@@H](C)[C@@H]2CC(=O)[C@H](C)/C=C(\C)[C@@H](O)[C@@H](OC)C(=O)[C@H](C)C[C@H](C)/C=C/C=C/C=C(\C)[C@@H](OC)C[C@@H]3CC[C@@H](C)[C@@](O)(O3)C(=O)C(=O)N3CCCC[C@H]3C(=O)O2)C[C@H]1OC [biolimus] here?
**A.** not inferior and potentially better

Source: patent US20160279297A1, “METHODS FOR INHIBITING STENOSIS, OBSTRUCTION, OR CALCIFICATION OF A STENTED HEART VALVE OR BIOPROSTHESIS” (CONCIEVALVE LLC, priority 2013, published 2016)
